{"source": "patent US20070072181A1", "about": "(priority 2003, published 2007)", "test_system": "VSV", "format": "cell-based", "note": "Where two headings read alike, the source gives them in different places.", "data": [{"smiles": "Cc1ccc(=O)n(-c2ccccc2)c1", "note": "[PD, 5-methyl-1-phenyl-2-(1H)-pyridone]", "values": [{"measurement": "Mean (Means for Oneway Anova; antiviral effect)", "setting": "0.001 ng interferon + 3 μg pirfenidone (PD), HeLa, VSV", "result": 0.6002}, {"measurement": "Mean (Means for Oneway Anova; antiviral effect)", "setting": "0.001 ng interferon + 30 μg pirfenidone (PD), HeLa, VSV", "result": 0.543}, {"measurement": "Mean (Means for Oneway Anova; antiviral effect)", "setting": "0.001 ng interferon + 300 μg pirfenidone (PD), HeLa, VSV", "result": 0.3705}, {"measurement": "Mean (Means for Oneway Anova; antiviral effect)", "setting": "0.0049 ng interferon + 3 μg pirfenidone (PD), HeLa, VSV", "result": 0.407}, {"measurement": "Mean (Means for Oneway Anova; antiviral effect)", "setting": "0.0049 ng interferon + 30 μg pirfenidone (PD), HeLa, VSV", "result": 0.3033}, {"measurement": "Mean (Means for Oneway Anova; antiviral effect)", "setting": "0.0049 ng interferon + 300 μg pirfenidone (PD), HeLa, VSV", "result": 0.1915}, {"measurement": "Mean (Means for Oneway Anova; antiviral effect)", "setting": "0.019 ng interferon + 3 μg pirfenidone (PD), HeLa, VSV", "result": 0.519}, {"measurement": "Mean (Means for Oneway Anova; antiviral effect)", "setting": "0.019 ng interferon + 30 μg pirfenidone (PD), HeLa, VSV", "result": 0.284}, {"measurement": "Mean (Means for Oneway Anova; antiviral effect)", "setting": "0.019 ng interferon + 300 μg pirfenidone (PD), HeLa, VSV", "result": 0.1785}, {"measurement": "Mean (Means for Oneway Anova; antiviral effect)", "setting": "0.076 ng interferon + 3 μg pirfenidone (PD), HeLa, VSV", "result": 0.68}, {"measurement": "Mean (Means for Oneway Anova; antiviral effect)", "setting": "0.076 ng interferon + 30 μg pirfenidone (PD), HeLa, VSV", "result": 0.4505}, {"measurement": "Mean (Means for Oneway Anova; antiviral effect)", "setting": "0.076 ng interferon + 300 μg pirfenidone (PD), HeLa, VSV", "result": 0.1938}, {"measurement": "Mean (Means for Oneway Anova; antiviral effect)", "setting": "0.3 ng interferon + 3 μg pirfenidone (PD), HeLa, VSV", "result": 0.5563}, {"measurement": "Mean (Means for Oneway Anova; antiviral effect)", "setting": "0.3 ng interferon + 30 μg pirfenidone (PD), HeLa, VSV", "result": 0.4298}, {"measurement": "Mean (Means for Oneway Anova; antiviral effect)", "setting": "0.3 ng interferon + 300 μg pirfenidone (PD), HeLa, VSV", "result": 0.1948}, {"measurement": "Mean (Means for Oneway Anova; antiviral effect)", "setting": "1.2 ng interferon + 3 μg pirfenidone (PD), HeLa, VSV", "result": 0.306}, {"measurement": "Mean (Means for Oneway Anova; antiviral effect)", "setting": "1.2 ng interferon + 30 μg pirfenidone (PD), HeLa, VSV", "result": 0.4248}, {"measurement": "Mean (Means for Oneway Anova; antiviral effect)", "setting": "1.2 ng interferon + 300 μg pirfenidone (PD), HeLa, VSV", "result": 0.1872}, {"measurement": "Mean (Means for Oneway Anova; antiviral effect)", "setting": "4.8 ng interferon + 3 μg pirfenidone (PD), HeLa, VSV", "result": 0.245}, {"measurement": "Mean (Means for Oneway Anova; antiviral effect)", "setting": "4.8 ng interferon + 30 μg pirfenidone (PD), HeLa, VSV", "result": 0.3757}, {"measurement": "Mean (Means for Oneway Anova; antiviral effect)", "setting": "4.8 ng interferon + 300 μg pirfenidone (PD), HeLa, VSV", "result": 0.325}, {"measurement": "Mean (Means for Oneway Anova; antiviral effect)", "setting": "19 ng interferon + 3 μg pirfenidone (PD), HeLa, VSV", "result": 0.979}, {"measurement": "Mean (Means for Oneway Anova; antiviral effect)", "setting": "19 ng interferon + 30 μg pirfenidone (PD), HeLa, VSV", "result": 0.2968}, {"measurement": "Mean (Means for Oneway Anova; antiviral effect)", "setting": "19 ng interferon + 300 μg pirfenidone (PD), HeLa, VSV", "result": 0.4105}, {"measurement": "effect on the antiviral effects of interferon", "setting": "low doses of Pirfenidone with interferon, HeLa, VSV", "result": "enhance the antiviral effects of interferon"}, {"measurement": "effect on viral growth in combination with IFN-α", "setting": "low doses of pirfenidone in combination therapy with IFN-α", "result": "synergistic effect on reducing viral growth"}]}]}
